# Measurements as given in article PMC9848300, “Discovery of novel enasidenib analogues targeting inhibition of mutant isocitrate dehydrogenase 2 as antileukaemic agents” (Journal of Enzyme Inhibition and Medicinal Chemistry, 2023).
# Legend:
# [1] = tested on: SF-539; test: NCI 60 antitumor screening (single dose / five doses); format: cell-based; settings: Homo sapiens, SF-539, read-out: Growth inhibition percentage (GI %)
# [2] = tested on: SN 12C; test: as above; format: cell-based; settings: Homo sapiens, SN12C, read-out: Growth inhibition percentage (GI %)
# [3] = tested on: SW-620; test: as above; format: cell-based, human; settings: Homo sapiens, SW-620, read-out: Growth inhibition percentage (GI %)
# [4] = tested on: MDA-MB-435; test: as above; format: cell-based; settings: Homo sapiens, MDA-MB-435, read-out: Growth inhibition percentage (GI %)
# [5] = tested on: A498; test: as above; format: cell-based; settings: Homo sapiens, A498, read-out: Growth inhibition percentage (GI %)
# [6] = tested on: ACHN; test: as above; format: cell-based; settings: Homo sapiens, ACHN, read-out: Growth inhibition percentage (GI %)
# [7] = tested on: SK-MEL-2; test: as above; format: cell-based; settings: Homo sapiens, SK-MEL-2, read-out: Growth inhibition percentage (GI %)
# [8] = tested on: 786-0; test: as above; format: cell-based; settings: Homo sapiens, 786-0, read-out: Growth inhibition percentage (GI %)
# [9] = tested on: SK-MEL-5; test: as above; format: cell-based; settings: Homo sapiens, SK-MEL-5, read-out: Growth inhibition percentage (GI %)
# [10] = tested on: UACC-257; test: as above; format: cell-based; settings: Homo sapiens, UACC-257, read-out: Growth inhibition percentage (GI %)
# [11] = tested on: MOLT-4; test: as above; format: cell-based; settings: Homo sapiens, MOLT-4, read-out: Growth inhibition percentage (GI %)
# [12] = tested on: HOP-92; test: as above; format: cell-based; settings: Homo sapiens, HOP-92, read-out: Growth inhibition percentage (GI %)
# [13] = tested on: MALME-3M; test: as above; format: cell-based; settings: Homo sapiens, Malme-3M, read-out: Growth inhibition percentage (GI %)
# [14] = tested on: EKVX; test: as above; format: cell-based; settings: Homo sapiens, EKVX, read-out: Growth inhibition percentage (GI %)
# [15] = tested on: CCRF-CEM; test: as above; format: cell-based; settings: Homo sapiens, CCRF-CEM, read-out: Growth inhibition percentage (GI %)
# [16] = tested on: COLO 205; test: as above; format: cell-based; settings: Homo sapiens, COLO 205, read-out: Growth inhibition percentage (GI %)
# [17] = tested on: K-562; test: as above; format: cell-based; settings: Homo sapiens, K562, read-out: Growth inhibition percentage (GI %)
# [18] = tested on: UACC-62; test: as above; format: cell-based; settings: Homo sapiens, UACC-62, read-out: Growth inhibition percentage (GI %)
# [19] = tested on: MDA-MB-468; test: as above; format: cell-based; settings: Homo sapiens, MDA-MB-468, read-out: Growth inhibition percentage (GI %)
# [20] = tested on: HT29; test: as above; format: cell-based, human; settings: Homo sapiens, HT-29, read-out: Growth inhibition percentage (GI %)
# [21] = tested on: IGROV1; test: as above; format: cell-based; settings: Homo sapiens, IGROV-1, read-out: Growth inhibition percentage (GI %)
# [22] = tested on: SK-MEL-28; test: as above; format: cell-based; settings: Homo sapiens, SK-MEL-28, read-out: Growth inhibition percentage (GI %)
# [23] = tested on: SR; test: as above; format: cell-based; settings: Homo sapiens, SR, read-out: Growth inhibition percentage (GI %)
# [24] = tested on: SF-268; test: NCI 60 antitumor screening (single dose); format: cell-based; settings: Homo sapiens; SF-268 (CNS cancer), single dose 10 μM; read-out: Growth inhibition percentage (GI %)
# Summary of the method: (§1)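 Values are GI% (100 minus percent growth, G%) from the NCI 60 cell line screen at one 10 μM concentration. Tests were done in triplicate under NCI protocol, with a mean across the whole panel reported as well.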
# [25] = tested on: OVCAR-3; test: NCI 60 antitumor screening (single dose); format: cell-based; settings: Homo sapiens; OVCAR-3 (ovarian cancer), single dose 10 μM; read-out: Growth inhibition percentage (GI %)
# Summary of the method: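 Read-out is percent growth (G%) of treated cancer cells relative to untreated, converted to percent inhibition as 100 − G%. Each compound was applied once at 10 μM across 60 human tumour lines under the NCI protocol.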
# [26] = tested on: NCI-H460; test: NCI 60 antitumor screening (single dose); format: cell-based; settings: Homo sapiens; NCI-H460 (non-small cell lung cancer), single dose 10 μM; read-out: Growth inhibition percentage (GI %)
# Summary of the method: as §1
# [27] = tested on: MDA-MB-231/ATCC; test: NCI 60 antitumor screening (single dose / five doses); format: cell-based; settings: Homo sapiens, MDA-MB-231, read-out: Growth inhibition percentage (GI %)
smiles,measurement,setting,value
"C/C(=N\Nc1nc(N/N=C(\C)c2ccc([N+](=O)[O-])cc2)nc(N2CCOCC2)n1)c1ccc([N+](=O)[O-])cc1 [compound 8a, 2-(Morpholin-4-yl)-4,6-bis[(E)-2-[1–(4-nitrophenyl)ethylidene]hydrazin-1-yl]-1,3,5-triazine]",inhibition at 10 µM,[1],84.5%
same,inhibition at 10 µM,[2],-27.4%
same,inhibition at 10 µM,[3],4.48%
same,inhibition at 10 µM,[4],15%
same,inhibition at 10 µM,[5],33.9%
same,inhibition at 10 µM,[6],22.1%
same,inhibition at 10 µM,[7],3.61%
same,inhibition at 10 µM,[8],33.1%
same,inhibition at 10 µM,[9],32.9%
same,inhibition at 10 µM,[10],0.81%
same,inhibition at 10 µM,[11],21.1%
same,inhibition at 10 µM,[12],35.9%
same,inhibition at 10 µM,[13],30.6%
same,inhibition at 10 µM,[14],31.9%
same,inhibition at 10 µM,[15],38.4%
same,inhibition at 10 µM,[16],5.21%
same,inhibition at 10 µM,[17],20.3%
same,inhibition at 10 µM,[18],14.7%
same,inhibition at 10 µM,[19],20.4%
same,inhibition at 10 µM,[20],19.4%
same,inhibition at 10 µM,[21],6.22%
same,inhibition at 10 µM,[22],16.2%
same,inhibition at 10 µM,[23],-13.1%
same,inhibition at 10 µM,[24],3.96%
same,inhibition at 10 µM,[25],11.6%
same,inhibition at 10 µM,[26],21.9%
same,inhibition at 10 µM,[27],56.5%
